Measured values from US6420387B1, “Farnesyl protein transferase inhibiting (imidazol-5-yl) methyl-2-quinolinone derivatives” (Janssen Pharmaceutica N.V., priority 1995, dated 2002).
Where a name gives a salt, the structure may show the parent alone.

Legend:
[1] = biological target: T1, Human farnesyl protein transferase (Homo sapiens, UniProt P49354+P49356); assay: In vitro assay for inhibition of farnesyl protein transferase (scintillation proximity assay); type: biochemical; settings: concentration producing 50% inhibition of enzyme activity; [3H]-farnesylpyrophosphate and biotinylated lamin B peptide substrates, 60 min at 37° C.
T1 construct: grown as monolayer cell cultures were used as a source of human enzyme; endogenous in cells; host or cells: KHOS (Kirsten virus transformed human osteosarcoma) cells, grown as solid tumors in nude mice or as monolayer cultures; 30-50% ammonium sulfate fraction, then Q Fast Flow Sepharose
Experimental: Human farnesyl protein transferase was prepared essentially as described (Y. Reiss et al., Methods: A Companion to Methods in Enzymology vol 1, 241-245, 1990). Kirsten virus transformed human osteosarcoma (KHOS) cells (American Type Culture Collection, Rockville, Md., USA) grown as solid tumors in nude mice or grown as monolayer cell cultures were used as a source of human enzyme. Briefly, cells or tumors were homogenized in buffer containing 50 mM Tris, 1 mM EDTA, 1 mM EGTA and 0.2 mM phenylmethylsulfonylfluoride (pH 7.5). The homogenates were centrifuged 28,000×g for 60 min and the supernatants collected. A 30-50% ammonium sulfate fraction was prepared, and the resulting precipitate was resuspended in a small (10 to 20 ml) volume of dialysis buffer containing 20 mM Tris 1 mM dithiothreitol and 20 μM ZnCl2. The ammonium sulfate fraction was dialyzed overnight against two changes of the same buffer. The dialyzed material was applied to a 10×1 cm Q Fast Flow Sepharose (Pharmacia LKB Biotechnology Inc., Piscataway, N.J., USA) which had been preequilibrated with 100 ml of dialysis buffer supplemented with 0.05 M NaCl. The column was washed with an additional 50 ml of dialysis buffer plus 0.05 M NaCl followed by a gradient from 0.05 M to 0.25 M NaCl prepared in dialysis buffer. The enzyme activity was eluted with a linear gradient of 0.25 to 1.0 M NaCl prepared in the dialysis buffer. Fractions containing 4 to 5 ml volumes of column eluate were collected and analyzed for farnesyl protein transferase activity. Fractions with enzyme activity were pooled and supplemented with 100 μM ZnCl2. Enzyme samples were stored frozen at −70° C.
The activity of farnesyl protein transferase was measured using the Farnesyl Transferase [^3H] Scintillation Proximity Assay (Amersham International plc., England) under the conditions specified by the manufacturer. To assay for inhibitors of the enzyme, 0.20 μCi of the [^3H]-famesylpyrophosphate substrate and the biotinylated lamin B peptide substrate (biotin-YRASNRSCAIM) were mixed with test compounds in a reaction buffer consisting of 50 mM HEPES, 30 mM MgCl2, 20 mM KCl, 5 mM dithiothreitol, 0.01% Triton X-100. Test compounds were delivered in a 10 μl volume of dimethylsulfoxide (DMSO) to achieve concentrations of 1 and 10 μg/ml in a final volume of 100 μl. The reaction mixture was warmed to 37° C. The enzyme reaction was started by adding 20 μl of diluted human farnesyl protein transferase. Sufficient enzyme preparation was added to produce between 4000 to 15000 cpm of reaction product during the 60 min of reaction incubation at 37° C. Reactions were terminated by the addition of STOP/scintillation proximity bead reagent (Amersham). The reaction product [^3H]-farnesyl-(Cys)-biotin lamin B peptide was captured on the streptavidin linked scintillation proximity bead. The amount of [^3H]-farnesyl-(Cys)-biotin lamin B peptide synthesized in the presence or absence of test compounds was quantified as cpm by counting on a Wallac Model 1480 Microbeta Liquid Scintillation Counter. The cpm of product was considered to be farnesyl protein transferase activity. The protein farnesyl transferase activity observed in the presence of test compound was normalized to farnesyl transferase activity in the presence of 10% DMSO and expressed as per cent inhibition. […] The effects of test compounds in these studies were calculated as IC50 (concentration of test compound producing 50% inhibition of enzyme activity) using the LGICV50 computer program written by the Science Information Division of R. W. Johnson Pharmaceutical Research Institute (Spring House, Pa., USA) on a VAX computer.

[2] = test system: NIH 3T3 cells transformed by the T24 activated human H-ras gene; assay: Ras-transformed cell phenotype reversion assay; type: cell-based, mouse; settings: NIH3T3; cell counts after 72 hours proliferation, corrected for initial input of 200,000 cells
Text: Insertion of activated oncogenes such as the mutant ras gene into mouse NIH 3T3 cells converts the cells to a transformed phenotype. The cells become tumorigenic, display anchorage independent growth in semi-solid medium and lose contact inhibition. Loss of contact inhibition produces cell cultures which no longer form uniform monolayers. Rather, the cells pile up into multicellular nodules and grow to very high saturation densities in plastic tissue culture dishes. Agents such as protein farnesyl transferase inhibitors which revert the ras transformed phenotype restore the uniform monolayer growth pattern to cells in culture. This reversion is easily monitored by counting the number of cells in tissue culture plates. Transformed cells will achieve higher cell numbers than cells which have reverted to an untransformed phenotype. Compounds which revert the transformed phenotype should produce antitumor effects in tumors bearing ras gene mutations.
Compounds are screened in tissue culture in NIH 3T3 cells transformed by the T24 activated human H-ras gene. Cells are seeded at an initial density of 200,000 cells per well (9.6 cm^2 surface area) in six-well cluster tissue culture plates. Test compounds are immediately added to 3.0 ml cell growth medium in a 3.0 μl volume of DMSO, with a final concentration of DMSO in the cell growth medium of 0.1%. The test compounds are run at concentrations of 5, 10, 50, 100, and 500 nM along with a DMSO treated vehicle control. (In case a high activity is observed at 5 nM, the test compound is tested at even lower concentrations.) The cells are allowed to proliferate for 72 hours. Then the cells are detached in 1.0 ml trypsin-EDTA cell dissociation medium and counted on a Coulter particle counter.
Cell numbers expressed as cells per well are measured using a Coulter Particle Counter.
All cell counts were corrected for the initial cell input density by subtracting 200,000.
Control cell counts=[cell counts from cells incubated with DMSO vehicle −200,000].
Test compound cell counts=[cell counts from cells incubated with test compound −200,000]. [formula]
IC50 (i.e. the test compound concentration required to inhibit enzyme activity by 50%) is calculated if sufficient data are available, summarized in table 11.

[3] = test system: T24 activated human H-ras gene transformed NIH 3T3 fibroblast cells (T24 cells); assay: Farnesyl protein transferase inhibitor secondary tumor model; type: in vivo; settings: nude mice with subcutaneous T24 cell tumors, 15 days of treatment
Text: The enzyme farnesyl protein transferase catalyzes the covalent attachment of a farnesyl moiety derived from farnesyl pyrophosphate to the oncogene product p21^ras. This directs p21^ras to attach to plasma membranes. Once attached to plasma membranes, mutant or oncogenic forms of p21^ras will provide a signal for the transformation and uncontrolled growth of malignant tumor cells. Therefore, inhibitors of protein farnesyl transferase will prevent the membrane attachment of p21^ras and inhibit growth of ras-transformed tumors.
Nude mice are inoculated with 1×10^6 of T24 activated human H-ras gene transformed NIH 3T3 fibroblast cells (T24 cells), subcutaneously in the inguinal region. After three days to allow tumors to become established, treatment with test compounds is begun via the oral route. The test compounds are dissolved in a 20% β-cyclodextrin in 0.1 N HCl solution and administered orally as 0.1 ml of compound solution per 10 g mouse body weight. Routinely used doses are 6.25, 12.5 and 25 mg/kg. Body weights and tumor sizes are monitored during the ensuing 15 days of treatment. At the end of treatment, animals are sacrificed and tumors are weighed.
The “mean vehicle treated tumor weight” is defined as the mean tumor weight from 10 to 15 mice […].
The “mean tumor weight” is defined as the mean tumor weight from 10 to 15 mice […]. [formula]

Row | SMILES | IC50 [1] [nM] | melting point [°C] | IC50 [2] [nM] | % reduction final tumor weight at a dose of 25 mg/kg bid, po [3] [%]
1 | Cn1cncc1C(C)(c1ccc(Cl)cc1)c1ccc2c(c1)c(-c1cccc(Cl)c1)cc(=O)n2C (racemic) [Compound 12, (±)-4-(3-chlorophenyl)-6-[1-(4-chlorophenyl)-1-(1-methyl-1H-imidazol-5-yl)ethyl]-1-methyl-2(1H)-quinolinone.ethanedioate (1:1)] | 4.2 | 203.9 | 66 | 
2 | Cn1cncc1C(N)(c1ccc(Cl)cc1)c1ccc2c(c1)c(-c1cccc(Cl)c1)cc(=O)n2C (racemic) [Compound 14, (±)-6-[amino(4-chlorophenyl)(1-methyl-1H-imidazol-5-yl)methyl]-4-(3-chlorophenyl)-1-methyl-2(1H)-quinolinone] |  |  | 3.8 | 66
3 | CC(=O)NC(c1ccc(Cl)cc1)(c1ccc2c(c1)c(-c1cccc(Cl)c1)cc(=O)n2C)c1cncn1C.O=C(O)C(=O)O (racemic) [Compound 56, (±)-N-[(4-chlorophenyl)[4-(3-chlorophenyl)-1,2-dihydro-1-methyl-2-oxo-6-quinolinyl](1-methyl-1H-imidazol-5-yl)methyl]acetamide ethanedioate (1:1)] |  |  | 23 | 42
4 | CCOc1cccc(-c2cc(=O)n(C)c3ccc(C(c4ccc(Cl)cc4)c4cncn4C)cc23)c1 (stereo not shown) [Compound 35, 6-[(4-chlorophenyl)(1-methyl-1H-imidazol-5-yl)methyl]-4-(3-ethoxyphenyl)-1-methyl-2(1H)-quinolinone monohydrochloride.monohydrate] | 0.39 |  | 3.4 | 39
5 | Cn1cncc1C(O)(c1ccc(Cl)cc1)c1ccc2c(c1)c(-c1cccc(OCCO)c1)cc(=O)n2C (stereo not shown) [Compound 63] | 1 |  | 53 | 
6 | CCCc1cccc(-c2cc(=O)n(C)c3ccc(C(N)(c4ccc(Cl)cc4)c4cncn4C)cc23)c1 (stereo not shown) [Compound 100] | 0.52 |  | 11 | 

Now from value to molecule, other results behind:

Row | IC50 [1] [nM] | melting point [°C] | SMILES | IC50 [2] [nM] | % reduction final tumor weight at a dose of 25 mg/kg bid, po [3] [%]
7 | 8 | 96.8 | Cn1cncc1C(c1ccc(Cl)cc1)c1ccc2c(c1)c(-c1ccccc1)cc(=O)n2C (racemic) [Compound 2, (±)-6-[(4chlorophenyl)(1-methyl-1H-imidazol-5-yl)methyl]-1-methyl-4-phenyl-2(1H)-quinolinone] |  | 
8 |  | 149.9 | Cn1cnc(C(c2ccc(Cl)cc2)c2ccc3c(c2)c(-c2ccccc2)cc(=O)n3C)c1 (racemic) [Compound 44, (±)-6-[(4-chlorophenyl)(1-methyl-1H-imidazol-4-yl)methyl]-1-methyl-4-phenyl-2(1H)-quinolinone] |  | 
9 |  | 154.6 | COC(c1ccc(Cl)cc1)(c1ccc2c(c1)c(-c1cccc(Cl)c1)cc(=O)n2C)c1cncn1C (racemic) (hydrate or solvate) [Compound 4, (±)-4-(3-chlorophenyl)-6-[(4-chlorophenyl)methoxy(1-methyl-1H-imidazol-5-yl)methyl]-1-methyl-2(1H)-quinolinone ethanedioate(1:1).dihydrate] |  | 
10 | 1.6 |  | CCOc1cccc(-c2cc(=O)n(C)c3ccc(C(O)(c4ccc(Cl)cc4)c4cncn4C)cc23)c1 (stereo not shown) [Compound 34, 6-[(4-chlorophenyl)hydroxy(1-methyl-1H-imidazol-5-yl)methyl]-4-(3-ethoxyphenyl)-1-methyl-2(1H)-quinolinone] | 3 | 56
11 | 1.7 | 233.6 | Cn1cncc1C(O)(c1ccc(Cl)cc1)c1ccc2c(c1)c(-c1cccc(Cl)c1)cc(=O)n2C (racemic) [Compound 3, (±)-4-(3-chlorophenyl)-6-[(4-chlorophenyl)hydroxy(1-methyl-1H-imidazol-5-yl)methyl]-1-methyl-2(1H)-quinolinone] |  | 
12 | 2.2 | 151.3 | Cn1cncc1C(CC#N)(c1ccc(Cl)cc1)c1ccc2c(c1)c(-c1cccc(Cl)c1)cc(=O)n2C (racemic) [Compound 25, (±)-4-(3-chlorophenyl)-β-(4-chlorophenyl)-1,2-dihydro-1-methyl-β-(1-methyl-1H-imidazol-5-yl)-2-oxo-6-quinolinepropanenitrile] | 86 | 
13 |  | 174.6 | CCCCn1cncc1C(O)(c1ccc(Cl)cc1)c1ccc2c(c1)c(-c1cccc(Cl)c1)cc(=O)n2C (racemic) [Compound 9, (±)-4-(3-chlorophenyl)-6-[(1-butyl-1H-imidazol-5-yl)(4-chlorophenyl)hydroxymethyl]-1-methyl-2(1H)-quinolinone] |  | 
14 |  | 157.4 | Cn1cncc1C(c1ccc(Cl)cc1)c1ccc2c(c1)c(-c1cccc(Cl)c1)cc(=O)n2C (racemic) (hydrate or solvate) [Compound 5, (±)-4-(3-chlorophenyl)-6-[(4-chlorophenyl)(1-methyl-1H-imidazol-5-yl)methyl]-1-methyl-2(1H)-quinolinone ethanedioate(1:1).mono-hydrate] |  | 
